For this assay, the system named is HBV. The following applies: Hepatitis B virus, HePAD38, 144 h, read-out: Cell Activity.

pEC50: −log10 of the molar value.

Consider `O=C(Nc1ccc(F)c(Cl)c1)N1CCn2nc(N[C@H]3CC[C@H](O)CC3)cc2C1` [Example 35, N-(3-chloro-4-fluorophenyl)-2-{[(1r,4r)-4-hydroxycyclohexyl]amino}-4H,5H,6H,7H-pyrazolo[1,5-a]pyrazine-5-carboxamide], for which the pEC50 was 5.00 to 6.00.

Take `O=C(Nc1ccc(F)c(Cl)c1)N1CCn2nc(N[C@H]3C[C@H](O)C3)cc2C1` [Example 36, N-(3-chloro-4-fluorophenyl)-2-{[(1r,3r)-3-hydroxycyclobutyl]amino}-4H,5H,6H,7H-pyrazolo[1,5-a]pyrazine-5-carboxamide]: the pEC50 was 5.00 to 6.00.

For the origin of these results see patent US20220009931A1, “NOVEL UREA 6,7-DIHYDRO-4H-PYRAZOLO[1,5-A]PYRAZINES ACTIVE AGAINST THE HEPATITIS B VIRUS (HBV)” (AICURIS GMBH & CO. KG, priority 2018, published 2022).
